Experimental data taken from PubChem BioAssay AID1963851 (Molecular Pharmacology Branch, DTP, NCI, 2024).

System: 188146-221-R-J1-PDC complex spheroid viability
Assay: Anticancer human tumor 188146-221-R-J1-PDC patient-derived colon adenocarcinoma cell line growth inhibition [POLQ]
Settings: for IC50: curve of first compound; for viability, T/C: stronger effect = lower value
Procedure, shortened: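 Growth inhibition in 3D: complex spheroids (tumor PDC, HUVEC, MSC) treated with POLQ inhibitor combinations; where Cmax unknown, highest tested concentration 10 microM, except SN-38 at 1 microM.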

[1] = second compound 0.0316 µM, first compound 0.0316 µM
[2] = second compound 0.0316 µM, first compound 0.1 µM
[3] = second compound 0.1 µM, first compound 0.0316 µM
[4] = second compound 0.1 µM, first compound 0.1 µM
[5] = second compound 0.316 µM, first compound 0.0316 µM
[6] = second compound 0.316 µM, first compound 0.1 µM
[7] = second compound 1 µM, first compound 0.0316 µM
[8] = second compound 1 µM, first compound 0.1 µM
[9] = second compound 3.16 µM, first compound 0.0316 µM
[10] = second compound 3.16 µM, first compound 0.1 µM
[11] = second compound 10 µM, first compound 0.0316 µM
[12] = second compound 10 µM, first compound 0.1 µM
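Also: spheroids exposed to compounds for seven days.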
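For viability, T/C in this document: 100% = DMSO vehicle control viability.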

Structure (SMILES): CC(=O)O[C@H]1C(=O)[C@@]2(C)[C@H]([C@H](OC(=O)c3ccccc3)[C@]3(O)C[C@H](OC(=O)[C@H](O)[C@@H](NC(=O)c4ccccc4)c4ccccc4)C(C)=C1C3(C)C)[C@]1(OC(C)=O)CO[C@@H]1C[C@@H]2O + Cc1cccc(N(C)C(=O)C2C(O)CCN2c2nc(C)cc(C(F)(F)F)c2C#N)c1
- IC50 (second compound 0.0316 µM): 14.8 nM
- IC50 (second compound 0.1 µM): 13.4 nM
- IC50 (second compound 0.316 µM): 11.3 nM
- IC50 (second compound 1 µM): 13.5 nM
- IC50 (second compound 3.16 µM): 9.98 nM
- IC50 (second compound 10 µM): 9.95 nM
- viability, T/C (second compound 0.0316 µM, first compound 0.00949 µM): 69%
- viability, T/C (second compound 0.0316 µM, first compound 0.03 µM): 20.6%
- viability, T/C (second compound 0.0316 µM, first compound 0.0949 µM): 11.7%
- viability, T/C (second compound 0.0316 µM, first compound 0.3 µM): 12.8%
- viability, T/C (second compound 0.0316 µM, first compound 0.949 µM): 13.3%
- viability, T/C (second compound 0.0316 µM, first compound 3 µM): 13.3%
- viability, T/C (second compound 0.1 µM, first compound 0.00949 µM): 61.8%
- viability, T/C (second compound 0.1 µM, first compound 0.03 µM): 23.3%
- viability, T/C (second compound 0.1 µM, first compound 0.0949 µM): 12%
- viability, T/C (second compound 0.1 µM, first compound 0.3 µM): 11.6%
- viability, T/C (second compound 0.1 µM, first compound 0.949 µM): 12.8%
- viability, T/C (second compound 0.1 µM, first compound 3 µM): 12.5%
- viability, T/C (second compound 0.316 µM, first compound 0.00949 µM): 55%
- viability, T/C (second compound 0.316 µM, first compound 0.03 µM): 22.4%
- viability, T/C (second compound 0.316 µM, first compound 0.0949 µM): 13.6%
- viability, T/C (second compound 0.316 µM, first compound 0.3 µM): 12.6%
- viability, T/C (second compound 0.316 µM, first compound 0.949 µM): 13.3%
- viability, T/C (second compound 0.316 µM, first compound 3 µM): 11.6%
- viability, T/C (second compound 1 µM, first compound 0.00949 µM): 63.3%
- viability, T/C (second compound 1 µM, first compound 0.03 µM): 19.4%
- viability, T/C (second compound 1 µM, first compound 0.0949 µM): 13.4%
- viability, T/C (second compound 1 µM, first compound 0.3 µM): 11%
- viability, T/C (second compound 1 µM, first compound 0.949 µM): 13%
- viability, T/C (second compound 1 µM, first compound 3 µM): 13.8%
- viability, T/C (second compound 3.16 µM, first compound 0.00949 µM): 51.5%
- viability, T/C (second compound 3.16 µM, first compound 0.03 µM): 17.5%
- viability, T/C (second compound 3.16 µM, first compound 0.0949 µM): 14.1%
- viability, T/C (second compound 3.16 µM, first compound 0.3 µM): 12.1%
- viability, T/C (second compound 3.16 µM, first compound 0.949 µM): 13.2%
- viability, T/C (second compound 3.16 µM, first compound 3 µM): 16.4%
- viability, T/C (second compound 10 µM, first compound 0.00949 µM): 51.4%
- viability, T/C (second compound 10 µM, first compound 0.03 µM): 17.4%
- viability, T/C (second compound 10 µM, first compound 0.0949 µM): 14.1%
- viability, T/C (second compound 10 µM, first compound 0.3 µM): 14.8%
- viability, T/C (second compound 10 µM, first compound 0.949 µM): 14.6%
- viability, T/C (second compound 10 µM, first compound 3 µM): 14.5%

Structure (SMILES): CC[C@@]1(O)C(=O)OCc2c1cc1n(c2=O)Cc2cc3c(CN(C)C)c(O)ccc3nc2-1 + Cc1cccc(N(C)C(=O)C2C(O)CCN2c2nc(C)cc(C(F)(F)F)c2C#N)c1
- IC50 (second compound 0.0316 µM): > 100 nM
- IC50 (second compound 0.1 µM): > 100 nM
- IC50 (second compound 0.316 µM): > 100 nM
- IC50 (second compound 1 µM): > 100 nM
- IC50 (second compound 3.16 µM): > 100 nM
- IC50 (second compound 10 µM): > 100 nM
- viability, T/C (second compound 0.0316 µM, first compound 0.000316 µM): 110%
- viability, T/C (second compound 0.0316 µM, first compound 0.001 µM): 95.1%
- viability, T/C (second compound 0.0316 µM, first compound 0.00316 µM): 106%
- viability, T/C (second compound 0.0316 µM, first compound 0.01 µM): 89.6%
- viability, T/C [1]: 98.1%
- viability, T/C [2]: 68.7%
- viability, T/C (second compound 0.1 µM, first compound 0.000316 µM): 112%
- viability, T/C (second compound 0.1 µM, first compound 0.001 µM): 99.6%
- viability, T/C (second compound 0.1 µM, first compound 0.00316 µM): 96%
- viability, T/C (second compound 0.1 µM, first compound 0.01 µM): 107%
- viability, T/C [3]: 99.1%
- viability, T/C [4]: 77.5%
- viability, T/C (second compound 0.316 µM, first compound 0.000316 µM): 109%
- viability, T/C (second compound 0.316 µM, first compound 0.001 µM): 91.2%
- viability, T/C (second compound 0.316 µM, first compound 0.00316 µM): 92.4%
- viability, T/C (second compound 0.316 µM, first compound 0.01 µM): 87%
- viability, T/C [5]: 96.5%
- viability, T/C [6]: 71.3%
- viability, T/C (second compound 1 µM, first compound 0.000316 µM): 93.4%
- viability, T/C (second compound 1 µM, first compound 0.001 µM): 99%
- viability, T/C (second compound 1 µM, first compound 0.00316 µM): 101%
- viability, T/C (second compound 1 µM, first compound 0.01 µM): 104%
- viability, T/C [7]: 97.9%
- viability, T/C [8]: 75.9%
- viability, T/C (second compound 3.16 µM, first compound 0.000316 µM): 97.2%
- viability, T/C (second compound 3.16 µM, first compound 0.001 µM): 100%
- viability, T/C (second compound 3.16 µM, first compound 0.00316 µM): 94.6%
- viability, T/C (second compound 3.16 µM, first compound 0.01 µM): 91.8%
- viability, T/C [9]: 92.2%
- viability, T/C [10]: 81%
- viability, T/C (second compound 10 µM, first compound 0.000316 µM): 100%
- viability, T/C (second compound 10 µM, first compound 0.001 µM): 99.6%
- viability, T/C (second compound 10 µM, first compound 0.00316 µM): 92.4%
- viability, T/C (second compound 10 µM, first compound 0.01 µM): 84.2%
- viability, T/C [11]: 78%
- viability, T/C [12]: 54.6%

Structure (SMILES): COc1cc(C2c3cc4c(cc3C(OC3OC5COC(C)OC5C(O)C3O)C3COC(=O)C23)OCO4)cc(OC)c1O (stereo unspecified) + Cc1cccc(N(C)C(=O)C2C(O)CCN2c2nc(C)cc(C(F)(F)F)c2C#N)c1
- IC50 (second compound 0.0316 µM): 887 nM
- IC50 (second compound 0.1 µM): 789 nM
- IC50 (second compound 0.316 µM): 723 nM
- IC50 (second compound 1 µM): 748 nM
- IC50 (second compound 3.16 µM): 664 nM
- IC50 (second compound 10 µM): 483 nM
- viability, T/C [1]: 115%
- viability, T/C [2]: 99.9%
- viability, T/C (second compound 0.0316 µM, first compound 0.316 µM): 77.3%
- viability, T/C (second compound 0.0316 µM, first compound 1 µM): 47.6%
- viability, T/C (second compound 0.0316 µM, first compound 3.16 µM): 27.5%
- viability, T/C (second compound 0.0316 µM, first compound 10 µM): 25.9%
- viability, T/C [3]: 111%
- viability, T/C [4]: 99.2%
- viability, T/C (second compound 0.1 µM, first compound 0.316 µM): 77.8%
- viability, T/C (second compound 0.1 µM, first compound 1 µM): 43.5%
- viability, T/C (second compound 0.1 µM, first compound 3.16 µM): 25.1%
- viability, T/C (second compound 0.1 µM, first compound 10 µM): 28.3%
- viability, T/C [5]: 108%
- viability, T/C [6]: 102%
- viability, T/C (second compound 0.316 µM, first compound 0.316 µM): 71.7%
- viability, T/C (second compound 0.316 µM, first compound 1 µM): 43%
- viability, T/C (second compound 0.316 µM, first compound 3.16 µM): 26.4%
- viability, T/C (second compound 0.316 µM, first compound 10 µM): 28.7%
- viability, T/C [7]: 108%
- viability, T/C [8]: 104%
- viability, T/C (second compound 1 µM, first compound 0.316 µM): 70.5%
- viability, T/C (second compound 1 µM, first compound 1 µM): 45.6%
- viability, T/C (second compound 1 µM, first compound 3.16 µM): 27.2%
- viability, T/C (second compound 1 µM, first compound 10 µM): 30.8%
- viability, T/C [9]: 101%
- viability, T/C [10]: 103%
- viability, T/C (second compound 3.16 µM, first compound 0.316 µM): 70.1%
- viability, T/C (second compound 3.16 µM, first compound 1 µM): 40.6%
- viability, T/C (second compound 3.16 µM, first compound 3.16 µM): 29.4%
- viability, T/C (second compound 3.16 µM, first compound 10 µM): 31.1%
- viability, T/C [11]: 93.1%
- viability, T/C [12]: 79.6%
- viability, T/C (second compound 10 µM, first compound 0.316 µM): 61.2%
- viability, T/C (second compound 10 µM, first compound 1 µM): 32.4%
- viability, T/C (second compound 10 µM, first compound 3.16 µM): 29.1%
- viability, T/C (second compound 10 µM, first compound 10 µM): 32.8%
